For six compounds, Ki results are on record in ChEMBL document CHEMBL4184213, “Essential structure of orexin 1 receptor antagonist YNT-707, Part II: Drastic effect of the 14-hydroxy group on the orexin 1 receptor antagonistic activity” (Bioorg Med Chem Lett, 2018).

One assay concerns the target T1, Orexin receptor type 2 (Homo sapiens, UniProt O43614).
T1 sequence (O43614 whole entry): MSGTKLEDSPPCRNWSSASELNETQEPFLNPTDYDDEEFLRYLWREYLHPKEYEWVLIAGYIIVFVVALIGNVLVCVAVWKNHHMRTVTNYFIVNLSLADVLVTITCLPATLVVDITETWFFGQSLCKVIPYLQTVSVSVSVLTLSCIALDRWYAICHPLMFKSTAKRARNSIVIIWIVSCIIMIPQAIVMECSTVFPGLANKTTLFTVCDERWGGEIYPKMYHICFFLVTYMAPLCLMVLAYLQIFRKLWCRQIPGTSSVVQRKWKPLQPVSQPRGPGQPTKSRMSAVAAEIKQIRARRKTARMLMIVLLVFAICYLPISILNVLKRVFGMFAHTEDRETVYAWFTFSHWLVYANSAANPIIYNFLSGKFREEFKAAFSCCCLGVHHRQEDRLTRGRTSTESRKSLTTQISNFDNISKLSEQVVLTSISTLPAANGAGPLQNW
The assay can be described thus: Antagonist activity at human OX2R expressed in CHOK1 cells assessed as inhibition of orexin A-induced intracellular Ca2+ release preincubated for 15 mins followed by orexin A addition by Fura 2-AM dye based fluorescence assay. It counts as functional, cell-based.

Assay [1] deals with T2, Orexin/Hypocretin receptor type 1 (Homo sapiens, UniProt O43613).
T2 sequence (O43613 whole entry): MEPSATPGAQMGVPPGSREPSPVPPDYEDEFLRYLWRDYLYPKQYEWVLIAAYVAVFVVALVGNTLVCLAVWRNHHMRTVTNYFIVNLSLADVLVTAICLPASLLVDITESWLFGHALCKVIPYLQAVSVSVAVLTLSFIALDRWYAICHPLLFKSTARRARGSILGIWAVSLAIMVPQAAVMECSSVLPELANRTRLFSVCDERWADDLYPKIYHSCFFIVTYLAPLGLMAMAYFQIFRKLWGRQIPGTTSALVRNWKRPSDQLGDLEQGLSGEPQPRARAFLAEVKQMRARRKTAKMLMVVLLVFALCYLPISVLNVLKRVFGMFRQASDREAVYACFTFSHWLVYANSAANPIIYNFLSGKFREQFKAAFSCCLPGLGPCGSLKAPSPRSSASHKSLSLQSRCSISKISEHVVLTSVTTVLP
The experiment in a line: Antagonist activity at human OX1R expressed in CHOK1 cells assessed as inhibition of orexin A-induced intracellular Ca2+ release preincubated for 15 mins followed by orexin A addition by Fura 2-AM dye based fluorescence assay. It counts as functional, cell-based.

A word on the Ki: it is the dissociation constant of the complex between target and ligand, obtained from inhibition or displacement. `COc1ccc2c3c1O[C@H]1[C@@H](N(C)C(=O)/C=C/c4ccoc4)CC[C@@]4(O)[C@@H](C2)N(S(=O)(=O)c2ccccc2)CC[C@]314`: on Orexin receptor type 2, the Ki is above 10000 nM.
The same measure, in the same setting: then `COc1ccc2c3c1O[C@H]1[C@H](N(C)C(=O)/C=C/c4ccoc4)CC[C@@]4(O)[C@@H](C2)N(S(=O)(=O)c2ccccc2)CC[C@]314`, with above 10000 nM.
For `COc1ccc2c3c1O[C@H]1[C@@H](N(C)C(=O)/C=C/c4ccoc4)CC=C4[C@@H](C2)N(S(=O)(=O)c2ccccc2)CC[C@]431`, the figures for the Ki (in assay [1]; at Orexin receptor type 2) were 17.8 nM and 123 nM, respectively.
The like results for `COc1ccc2c3c1O[C@H]1[C@@H](N(C)C(=O)/C=C/c4ccoc4)CC[C@H]4[C@@H](C2)N(S(=O)(=O)c2ccccc2)CC[C@@]341` were, in that order, 187 nM and above 10000 nM.
For `COc1ccc2c3c1O[C@H]1[C@H](N(C)C(=O)/C=C/c4ccoc4)CC=C4[C@@H](C2)N(S(=O)(=O)c2ccccc2)CC[C@]431`, the Ki in assay [1] is 2.06 nM; on Orexin receptor type 2, above 10000 nM.
For `COc1ccc2c3c1O[C@H]1[C@H](N(C)C(=O)/C=C/c4ccoc4)CC[C@H]4[C@@H](C2)N(S(=O)(=O)c2ccccc2)CC[C@@]341` the same measures were 1.97 nM and above 10000 nM.
